Test results as given in patent US8283361B2 (AstraZeneca AB, priority 2008, dated 2012).

Molecular target: S. aureus GyrB ATPase (Staphylococcus aureus, UniProt P0A0K8)
Experiment: biochemical
Conditions: compound at 1 μM, one value per test if tested more than once; for inhibition at 1 µM: read-out: % Inhibition of S. aureus GyrB ATPase
Method in brief: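 IC50 values derive from 10-point titrations of compound (in DMSO). Phosphate formed from 250 μM ATP was quantified by acidic molybdate/malachite green after quenching.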

Chain of S. aureus GyrB ATPase (P0A0K8 whole entry): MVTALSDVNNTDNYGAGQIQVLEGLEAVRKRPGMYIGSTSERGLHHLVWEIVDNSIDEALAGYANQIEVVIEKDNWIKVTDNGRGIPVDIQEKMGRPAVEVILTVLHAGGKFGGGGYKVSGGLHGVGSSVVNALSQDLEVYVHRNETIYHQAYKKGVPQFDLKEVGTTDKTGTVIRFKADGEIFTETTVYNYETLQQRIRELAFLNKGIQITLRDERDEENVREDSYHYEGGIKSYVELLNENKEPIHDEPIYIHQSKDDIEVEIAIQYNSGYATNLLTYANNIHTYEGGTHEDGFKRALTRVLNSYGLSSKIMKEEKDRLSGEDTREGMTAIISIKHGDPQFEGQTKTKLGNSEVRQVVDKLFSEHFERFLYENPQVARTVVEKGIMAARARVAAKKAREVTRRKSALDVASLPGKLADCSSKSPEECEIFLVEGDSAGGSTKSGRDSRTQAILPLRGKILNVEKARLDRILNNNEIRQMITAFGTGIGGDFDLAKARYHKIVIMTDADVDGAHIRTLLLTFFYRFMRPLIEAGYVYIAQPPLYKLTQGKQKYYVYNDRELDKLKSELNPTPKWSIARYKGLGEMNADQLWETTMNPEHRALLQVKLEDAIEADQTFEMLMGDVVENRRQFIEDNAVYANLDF
Chain of S. aureus GyrB ATPase (P0AES4 whole entry, further chain): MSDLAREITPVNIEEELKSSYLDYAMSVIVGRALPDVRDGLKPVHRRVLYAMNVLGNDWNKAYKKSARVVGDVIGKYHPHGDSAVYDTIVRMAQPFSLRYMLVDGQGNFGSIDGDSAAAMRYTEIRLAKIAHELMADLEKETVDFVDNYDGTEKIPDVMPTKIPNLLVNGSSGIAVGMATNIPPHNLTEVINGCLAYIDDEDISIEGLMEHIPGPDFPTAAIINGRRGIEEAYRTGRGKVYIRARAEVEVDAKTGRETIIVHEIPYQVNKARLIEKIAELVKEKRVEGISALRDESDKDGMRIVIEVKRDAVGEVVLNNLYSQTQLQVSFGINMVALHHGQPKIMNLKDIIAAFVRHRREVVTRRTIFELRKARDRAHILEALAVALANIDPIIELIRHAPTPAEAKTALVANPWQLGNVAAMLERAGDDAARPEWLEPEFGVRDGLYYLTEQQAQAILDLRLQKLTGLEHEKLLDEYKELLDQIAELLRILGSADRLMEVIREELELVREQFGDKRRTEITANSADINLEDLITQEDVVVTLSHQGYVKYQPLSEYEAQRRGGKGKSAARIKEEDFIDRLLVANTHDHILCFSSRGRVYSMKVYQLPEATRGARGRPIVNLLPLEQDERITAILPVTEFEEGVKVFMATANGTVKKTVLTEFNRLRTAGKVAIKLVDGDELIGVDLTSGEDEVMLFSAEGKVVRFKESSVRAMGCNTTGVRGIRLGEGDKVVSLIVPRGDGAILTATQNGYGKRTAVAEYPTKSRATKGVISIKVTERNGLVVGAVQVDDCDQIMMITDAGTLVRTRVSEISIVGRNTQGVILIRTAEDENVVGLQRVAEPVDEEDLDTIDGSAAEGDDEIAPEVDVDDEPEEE

CCCn1cc(C(=O)NCCO)c(=O)c2ccc(-c3cnc(NC(=O)NCC)cc3-c3nc(C(F)(F)F)cs3)cc21 [Example 348, 7-{6-[(ethylcarbamoyl)amino]-4-[4-(trifluoromethyl)-1,3-thiazol-2-yl]pyridin-3-yl}-N-(2-hydroxyethyl)-4-oxo-1-propyl-1,4-dihydroquinoline-3-carboxamide]
inhibition at 1 µM: 98%

CCNC(=O)Nc1cc(-c2nc(C(F)(F)F)cs2)c(-c2ccc3c(c2)c(=O)c(C(=O)O)cn3[C@H]2CCCN(CCN3CCOCC3)C2)cn1 [Example 284, (S)-ethyl 6-(6-(3-ethylureido)-4-(4-(trifluoromethyl)thiazol-2-yl)pyridin-3-yl)-1-(1-(2-morpholinoethyl)piperidin-3-yl)-4-oxo-1,4-dihydroquinoline-3-carboxylic acid]
inhibition at 1 µM: 107%

CCNC(=O)Nc1cc(-c2nc(C(F)(F)F)cs2)c(-c2ccc3c(c2)c(=O)c(C(=O)O)cn3[C@@H]2CCCN(Cc3cccn3C)C2)cn1 [Example 282, (R)-ethyl 6-(6-(3-ethylureido)-4-(4-(trifluoromethyl)thiazol-2-yl)pyridin-3-yl)-1-(1-((1-methyl-1H-pyrrol-2-yl)methyl)piperidin-3-yl)-4-oxo-1,4-dihydroquinoline-3-carboxylic acid]
inhibition at 1 µM: 105%

CCNC(=O)Nc1cc(-c2nc(C(F)(F)F)cs2)c(-c2ccc3c(=O)c(C(=O)NCCN4CCOCC4)cn(Cc4ccccc4)c3c2)cn1 [Example 357, 1-Benzyl-7-{6-[(ethylcarbamoyl)amino]-4-[4-(trifluoromethyl)-1,3-thiazol-2-yl]pyridin-3-yl}-N-[2-(morpholin-4-yl)ethyl]-4-oxo-1,4-dihydroquinoline-3-carboxamide]
inhibition at 1 µM: 87%

CCNC(=O)Nc1cc(-c2nc(C(F)(F)F)cs2)c(-c2ccc3c(c2)c(=O)c(C(=O)O)cn3[C@@H]2CCCN(CC(C)(C)C)C2)cn1 [Example 286]
inhibition at 1 µM: 102%

CCNC(=O)Nc1cc(-c2nc(C(F)(F)F)cs2)c(-c2ccc3c(c2)c(=O)c(C(=O)O)cn3[C@@H]2CCCN(CC)C2)cn1 [Example 252, (R)-1-(1-ethylpiperidin-3-yl)-6-(6-(3-ethylureido)-4-(4-(trifluoromethyl)thiazol-2-yl)pyridin-3-yl)-4-oxo-1,4-dihydroquinoline-3-carboxylic acid]
inhibition at 1 µM: 105%

CC(C)NC(=O)Nc1cc(-c2nc(C(F)(F)F)cs2)c(-c2ccc3c(c2)c(=O)c(C(=O)NCCO)cn3CCC2CCN(C)CC2)cn1 [Example 216, N-(2-hydroxyethyl)-6-(6-(3-isopropylureido)-4-(4-(trifluoromethyl)thiazol-2-yl)pyridin-3-yl)-1-(2-(1-methylpiperidin-4-yl)ethyl)-4-oxo-1,4-dihydroquinoline-3-carboxamide]
inhibition at 1 µM: 109%

CC(C)NC(=O)Nc1cc(-c2nc(C(F)(F)F)cs2)c(-c2ccc3c(c2)c(=O)c(C(=O)NCCN(C)C)cn3CCN2CCN(C)CC2)cn1 [Example 227, N-(2-(dimethylamino)ethyl)-6-(6-(3-isopropylureido)-4-(4-(trifluoromethyl)thiazol-2-yl)pyridin-3-yl)-1-(2-(4-methylpiperazin-1-yl)ethyl)-4-oxo-1,4-dihydroquinoline-3-carboxamide]
inhibition at 1 µM: 91%

CCNC(=O)Nc1cc(-c2nc(C(F)(F)F)cs2)c(-c2ccc3c(c2)c(=O)c(C(=O)O)cn3C2CCCCC2)cn1 [Example 322, 1-Cyclohexyl-6-(6-(3-ethylureido)-4-(4-(trifluoro-methyl)thiazol-2-yl)pyridin-3-yl)-4-oxo-1,4-dihydroquinoline-3-carboxylic acid]
inhibition at 1 µM: 96%

CC(C)NC(=O)Nc1cc(-c2nc(C(F)(F)F)cs2)c(-c2ccc3c(c2)c(=O)c(C(=O)NCCN(C)C)cn3CCC2CCN(C)CC2)cn1 [Example 226]
inhibition at 1 µM: 94%

CC(C)NC(=O)Nc1cc(-c2nc(C(F)(F)F)cs2)c(-c2ccc3c(c2)c(=O)c(C(=O)NCCO)cn3C2CCOCC2)cn1 [Example 210, N-(2-hydroxyethyl)-6-(6-(3-isopropylureido)-4-(4-(trifluoromethyl)thiazol-2-yl)pyridin-3-yl)-4-oxo-1-(tetrahydro-2H-pyran-4-yl)-1,4-dihydroquinoline-3-carboxamide]
inhibition at 1 µM: 93%

CCNC(=O)Nc1cc(-c2nc(C(F)(F)F)cs2)c(-c2cc3c4c(c2)c(=O)c(C(=O)OCC)cn4CCO3)cn1 [Example 48, ethyl 9-(6-(3-ethylureido)-4-(4-trifluoromethylthiazol-2-yl)pyridin-3-yl)-7-oxo-3,7-dihydro-2H-[1,4]oxazino[2,3,4-ij]quinoline-6-carboxylate]
inhibition at 1 µM: 106%

CCNC(=O)Nc1cc(-c2nc(C(F)(F)F)cs2)c(-c2ccc3c(c2)c(=O)c(C(=O)O)cn3[C@H](C)CO)cn1 [Example 72, (R)-6-(6-(3-ethylureido)-4-(4-(trifluoromethyl)thiazol-2-yl)pyridin-3-yl)-1-(1-hydroxypropan-2-yl)-4-oxo-1,4-dihydroquinoline-3-carboxylic acid]
inhibition at 1 µM: 103%

CCCNC(=O)Nc1cc(-c2nc(C(F)(F)F)cs2)c(-c2ccc3c(c2)c(=O)c(C(=O)O)cn3CCN(C)C)cn1 [Example 152, 1-(2-(dimethylamino)ethyl)-4-oxo-6-(6-(3-propylureido)-4-(4-(trifluoromethyl)thiazol-2-yl)pyridin-3-yl)-1,4-dihydroquinoline-3-carboxylic acid]
% Inhibition of S. aureus GyrB ATPase (1 µM): 106% | inhibition at 1 µM: 95%

CCCNC(=O)Nc1cc(-c2nc(C(F)(F)F)cs2)c(-c2ccc3c(c2)c(=O)c(C(=O)NCCO)cn3C2CCOCC2)cn1 [Example 206, N-(2-hydroxyethyl)-4-oxo-6-(6-(3-propylureido)-4-(4-(trifluoromethyl)thiazol-2-yl)pyridin-3-yl)-1-(tetrahydro-2H-pyran-4-yl)-1,4-dihydroquinoline-3-carboxamide]
inhibition at 1 µM: 92%

CCNC(=O)Nc1cc(-c2nc(C(F)(F)F)cs2)c(-c2ccc3c(c2)c(=O)c(C(=O)O)cn3[C@@H]2CCN(C)C2)cn1 [Example 246, (R)-6-(6-(3-ethylureido)-4-(4-(trifluoromethyl)thiazol-2-yl)pyridin-3-yl)-1-(1-methylpyrrolidin-3-yl)-4-oxo-1,4-dihydroquinoline-3-carboxylic acid]
inhibition at 1 µM: 104%

CCCn1cc(C(=O)NC)c(=O)c2ccc(-c3cnc(NC(=O)NCC)cc3-c3nc(C(F)(F)F)cs3)cc21 [Example 347, 7-{6-[(ethylcarbamoyl)amino]-4-[4-(trifluoromethyl)-1,3-thiazol-2-yl]pyridin-3-yl}-N-methyl-4-oxo-1-propyl-1,4-dihydroquinoline-3-carboxamide]
inhibition at 1 µM: 100%

CCNC(=O)Nc1cc(-c2nc(C(F)(F)F)cs2)c(-c2ccc3c(=O)c(C(=O)NC)cn(CCOC)c3c2)cn1 [Example 369, 7-{6-[(Ethylcarbamoyl)amino]-4-[4-(trifluoromethyl)-1,3-thiazol-2-yl]pyridin-3-yl}-1-(2-methoxyethyl)-N-methyl-4-oxo-1,4-dihydroquinoline-3-carboxamide]
inhibition at 1 µM: 97%

CCNC(=O)Nc1cc(-c2nc(C(F)(F)F)cs2)c(-c2ccc3c(c2)c(=O)c(C(=O)O)cn3[C@H](CC)CO)cn1 [Example 79, (R)-6-(6-(3-ethylureido)-4-(4-(trifluoromethyl)thiazol-2-yl)pyridin-3-yl)-1-(1-hydroxybutan-2-yl)-4-oxo-1,4-dihydroquinoline-3-carboxylic acid]
inhibition at 1 µM: 97%

CCNC(=O)Nc1cc(-c2nc(C(F)(F)F)cs2)c(-c2ccc3c(c2)c(=O)c(C(=O)O)cn3CC2CCCCN2)cn1 (centres unmarked) [Example 123, 6-(6-(3-ethylureido)-4-(4-(trifluoromethyl)thiazol-2-yl)pyridin-3-yl)-4-oxo-1-(piperidin-2-ylmethyl)-1,4-dihydroquinoline-3-carboxylic acid]
inhibition at 1 µM: 95%

CCNC(=O)Nc1cc(-c2nc(C(F)(F)F)cs2)c(-c2ccc3c(=O)c(C(=O)NCCN4CCN(C)CC4)cn(Cc4cccnc4)c3c2)cn1 [Example 362, 7-{6-[(ethylcarbamoyl)amino]-4-[4-(trifluoromethyl)-1,3-thiazol-2-yl]pyridin-3-yl}-N-[2-(4-methylpiperazin-1-yl)ethyl]-4-oxo-1-(pyridin-3-ylmethyl)-1,4-dihydroquinoline-3-carboxamide]
inhibition at 1 µM: 94%

CCNC(=O)Nc1cc(-c2nc(C(F)(F)F)cs2)c(-c2ccc3c(c2)c(=O)c(C(=O)NCCOC)cn3C2CC2)cn1 [Example 325, 1-Cyclopropyl-6-(6-(3-ethylureido)-4-(4-(trifluoromethyl)thiazol-2-yl)pyridin-3-yl)-N-(2-methoxyethyl)-4-oxo-1,4-dihydroquinoline-3-carboxamide]
inhibition at 1 µM: 96%

CCNC(=O)Nc1cc(-c2nc(C(F)(F)F)cs2)c(-c2ccc3c(c2)c(=O)c(C(=O)NC)cn3CC)cn1 [Example 34, 1-ethyl-6-(6-(3-ethylureido)-4-(4-(trifluoromethyl)thiazol-2-yl)pyridin-3-yl)-N-methyl-4-oxo-1,4-dihydroquinoline-3-carboxamide]
inhibition at 1 µM: 100%

CCNC(=O)Nc1cc(-c2nc(C(F)(F)F)cs2)c(-c2ccc3c(c2)c(=O)c(C(=O)O)cn3[C@H]2CCCN(Cc3cccn3C)C2)cn1 [Example 283, (S)-ethyl 6-(6-(3-ethylureido)-4-(4-(trifluoromethyl)thiazol-2-yl)pyridin-3-yl)-1-(1-((1-methyl-1H-pyrrol-2-yl)methyl)piperidin-3-yl)-4-oxo-1,4-dihydroquinoline-3-carboxylic acid]
inhibition at 1 µM: 102%

CCNC(=O)Nc1cc(-c2nc(C(F)(F)F)cs2)c(-c2ccc3c(c2)c(=O)c(C(=O)O)cn3C2CC2)cn1 [Example 20, 1-Cyclopropyl-6-(6-(3-ethylureido)-4-(4-(trifluoromethyl)thiazol-2-yl)pyridin-3-yl)-4-oxo-1,4-dihydroquinoline-3-carboxylic acid]
inhibition at 1 µM: 96%
